Experimental data taken from patent US20240335404A1, “SUBSTITUTED ESTERS CONTAINING POLYOLS AND SACCHARIDES FOR TREATING HEPATOTOXICITY AND FATTY LIVER DISEASES” (SINEW PHARMA INC., priority 2015, published 2024).

System: fatty liver
Assay: High fat diet-induced fatty liver in B6 mice
Assay type: in vivo
Settings: HFD mice; for GSH / Gpx / Grd / SOD: liver; for ALT / AST / TC in liver / TG in liver: administration period of 4 weeks; for liver TC / liver TG: 4 or 8 weeks; for ALT and AST values: compounds administered separately
Description: More than four mice were used in each group of the pre-test, while more than twelve mice were used in each group of the confirmatory test. […] The animal test was carried out according to the guideline for animal experiment of National Health Research Institutes. […] The weight of mice was recorded once a week. The tested animals were grouped randomly into Blank, High Fat Diet control (HFD), Positive Control (PS), and Test group. The animals of Blank were fed with normal feed. The animals of HFD were fed with high fat feed. […] The animals of Test group were fed with high fat feed, and additionally fed with test compounds by a tube. The animals of Blank were fed casually with normal feed for 12 weeks, while the animals of HFD, PS, and Test group were fed casually with high fat feed for 12 weeks. After 8 weeks of feeding, the animals of Blank and HFD were fed with deionized water by a tube once a day; the animals of PS were fed with silymarin by a tube once a day; and the animals of Test Group were fed with test compounds by a tube once a day for a duration of 4 or 8 weeks. Before testing and in the eighth, twelfth, and sixteenth week after testing, blood was collected from the cheek or the heart. At the end of testing, all mice were weighted and then sacrificed, and blood was collected from the cheek or the heart simultaneously. The blood specimens of mice rested at room temperature for one hour to clot, and then the serum was separated by centrifugation in a refrigeration centrifuge at 15,700×g at 4° C. for 5 minutes. Afterwards, biochemical indices of liver function, including aspartate transaminase (AST), alanine aminotransferase (ALT), triglyceride (TG), total cholesterol (TCHO/TC), low-density lipoprotein cholesterol (LDL-C), and high-density lipoprotein cholesterol (HDL-C), were detected by the automatic blood biochemistry analyzer. In addition, abdominal fat and liver specimens were taken from the abdomens of sacrificed mice and weighted to compare the weight of fat and liver and obtain the ratio of liver weight to body weight. […] The cut sections proceeded with H&E staining for histopathological observation. Moreover, the rest of the liver was frozen for preservation and detection of the contents of triglyceride and total cholesterol in the liver. Furthermore, the liver function of animals of each group were analyzed by Galactose Single Point Method, which was recognized and recommended for quantification of remaining liver function in clinical use by U.S. FDA and Ministry of Health and Welfare, Taiwan. […] One hour after the administration, about 0.5 ml of whole blood was taken by using a filter paper to evaluate liver function of mice. The higher the value of GSP was, the worse the remaining liver function would be. (FDA: “Guidance for Industry: Pharmacokinetics in Patients with Impaired. Hepatic Function-Study Design, Data Analysis and Impact on Dosing and. Labeling. 2003. At the end of the test, all mice were sacrificed. […] Afterwards, xylene was replaced with hot paraffin solution. At last, the tissue was embedded with paraffin solution. The finished paraffin specimen was cut into […] paraffin sections by the microtome. The sections were pasted on clean slides, dried at 37° C., and then stained by H&E staining. In order to observe the changes of lesion, fat accumulation, necrosis, or fibrosis in liver cells when there was an ongoing liver damage, liver tissues were H&E stained to evaluate the degree of liver fat accumulation. All the histopathological sections were cut from the same position on the largest right lobe of liver for eliminating bias in subjective observation, and then subject to pathological staining. As for the assessment of semi-quantitative analysis in pathology, it had to be confirmed by a physician or a veterinary pathologist who conducted a double-blind analysis to score (NAS score) and compare all the sections without knowing the test design. […]

[1] = 1.5 mg/kg, test period of 4 weeks
[2] = 4.5 mg/kg, test period of 4 weeks
[3] = 7.5 mg/kg, test period of 4 weeks

With `OC[C@@H](O)[C@@H](O)[C@H](O)[C@H](O)CO` [Mannitol] the “weight of abdominal fat” value was “reduce the weight of abdominal fat in animals significantly”, the GSH [1] was 1502.5 ± 276.9 U/L and the Gpx [1] was 2580.0 ± 555.2 U/L. The Grd [1] was 95.3 ± 22.1 U/L, the SOD [1] was 367.3 ± 35.6 U/L and the GSH [2] was 1605.1 ± 305.9 U/L. The Gpx [2] was 3423.3 ± 547.8 U/L, the Grd [2] was 110.1 ± 18.4 U/L and the SOD [2] was 429.2 ± 85.2 U/L. For the same molecule, the GSH [3] was 2147.7 ± 459.1 U/L, the Gpx [3] was 3738.3 ± 665.1 U/L and the Grd [3] was 117.6 ± 32.0 U/L. The SOD [3] was 462.8 ± 52.8 U/L, the Abdominal fat weight (1.5 mg/kg) was 2.0 ± 0.3 g and the “Increase of body weight” value (1.5 mg/kg) was 10.9 ± 7.4 g. The Liver weight (1.5 mg/kg) was 1.4 ± 0.2 g, the ALT (1.5 mg/kg) was 40.8 ± 11.4 U/L and the AST (1.5 mg/kg) was 187.2 ± 142.1 U/L. It also gave a TC in liver (1.5 mg/kg) of 3.4 ± 0.6 mg/g liver, a TG in liver (1.5 mg/kg) of 61.8 ± 32.6 mg/g liver and an Abdominal fat weight (4.5 mg/kg) of 2.7 ± 0.3 g. The “Increase of body weight” value (4.5 mg/kg) was 11.1 ± 7.7 g, the Liver weight (4.5 mg/kg) was 1.4 ± 0.2 g and the ALT (4.5 mg/kg) was 44.5 ± 15.9 U/L. It also gave an AST (4.5 mg/kg) of 107.6 ± 54.3 U/L, a TC in liver (4.5 mg/kg) of 7.2 ± 2.8 mg/g liver and a TG in liver (4.5 mg/kg) of 71.5 ± 45.5 mg/g liver. For the same molecule, the Abdominal fat weight (7.5 mg/kg) was 2.4 ± 0.3 g, the “Increase of body weight” value (7.5 mg/kg) was 10.3 ± 8.5 g and the Liver weight (7.5 mg/kg) was 1.4 ± 0.1 g. It also gave an ALT (7.5 mg/kg) of 25.0 ± 10.8 U/L, an AST (7.5 mg/kg) of 63.3 ± 7.7 U/L and a TC in liver (7.5 mg/kg) of 4.7 ± 1.2 mg/g liver. The TG in liver (7.5 mg/kg) was 53.8 ± 24.4 mg/g liver, the NAS [3] was 1.7 ± 0.8 mg/g liver and the “reduction in ALT value” (4-week treatment, p<0.005) was “about 64%”. For the same molecule, the “reduction in AST value” (4-week treatment, p<0.005) was “about 60%”, the “liver TC” value was “reduce TC in liver significantly” and the “liver TG” value was “reduce TG in liver significantly”. The “liver antioxidant activity” value (4 weeks) was “improve antioxidant activity significantly”, the “liver damage, NAS” value (4 weeks) was “reduce liver damage significantly” and the “ALT and AST values” was “reduce ALT and AST values significantly”. For the same molecule, the “liver tissue sections, H&E” value (treated for 4 weeks, FIG. 5) was “large vesicular fat droplets within liver cells in liver tissue section were significantly reduced”.

`OC[C@H]1O[C@H](O[C@]2(CCl)O[C@H](CCl)[C@@H](O)[C@@H]2O)[C@H](O)[C@@H](O)[C@H]1Cl` [Sucralose] was tested, and the “weight of abdominal fat” value was “reduce the weight of abdominal fat in animals significantly”, the GSH [1] was 1448.0 ± 281.5 U/L and the Gpx [1] was 2995.0 ± 651.1 U/L. It also gave a Grd [1] of 100.0 ± 18.6 U/L, an SOD [1] of 373.0 ± 50.4 U/L and a GSH [3] of 1609.1 ± 201.1 U/L. For the same molecule, the Gpx [3] was 3334.0 ± 377.7 U/L, the Grd [3] was 90.4 ± 17.2 U/L and the SOD [3] was 399.0 ± 34.5 U/L. For the same molecule, the Abdominal fat weight (1.5 mg/kg) was 2.1 ± 0.6 g, the “Increase of body weight” value (1.5 mg/kg) was 17.0 ± 5.6 g and the Liver weight (1.5 mg/kg) was 1.5 ± 0.2 g. For the same molecule, the ALT (1.5 mg/kg) was 30.9 ± 16.8 U/L, the AST (1.5 mg/kg) was 127.0 ± 31.2 U/L and the TC in liver (1.5 mg/kg) was 3.0 ± 0.9 mg/g liver. For the same molecule, the TG in liver (1.5 mg/kg) was 68.9 ± 37.5 mg/g liver, the Abdominal fat weight (7.5 mg/kg) was 2.4 ± 0.3 g and the “Increase of body weight” value (7.5 mg/kg) was 8.3 ± 5.4 g. For the same molecule, the Liver weight (7.5 mg/kg) was 1.4 ± 0.1 g, the ALT (7.5 mg/kg) was 32.3 ± 10.1 U/L and the AST (7.5 mg/kg) was 74.3 ± 18.6 U/L. The TC in liver (7.5 mg/kg) was 5.0 ± 0.9 mg/g liver, the TG in liver (7.5 mg/kg) was 56.8 ± 20.0 mg/g liver and the “liver TC” value was “reduce TC in liver significantly”. For the same molecule, the “liver TG” value was “reduce TG in liver significantly”, the “liver antioxidant activity” value (4 weeks) was “improve antioxidant activity significantly” and the “ALT and AST values” was “reduce ALT and AST values significantly”.
